Earlier results as cited in PubChem BioAssay AID1259409 (Chemical Carcinogenesis Research Information System (CCRIS), 2018).

Test system: rodent chemically induced tumor inhibition, incidence and multiplicity
Experiment: CCRIS tumor inhibitor studies
Conditions: Route [Inhibitor]: ORAL, Species: HAMSTER, Promoter: NONE USED

CC1=C(/C=C/C(C)=C/C=C/C(C)=C\C(=O)O)C(C)(C)CCC1
tumour outcome (control, treated, inhibition, significance) (Carcinogen: N-NITROBIS(2-OXOPROPYL)AMINE, 60559-38-4, Dose [Inhibitor]: 0.4 OR 0.8 MMOL/KG DIET DAILY STARTING 1 WK AFTER CARCINOGEN TREATMENT AND CONTINUING THROUGH THE END OF THE STUDY (STUD, Strain/Sex: SYRIAN/FEMALE, Target Tissue: Type of Lesion: PANCREAS: DUCTULAR ADENOMA, Dose [Carcinogen]: 40 MG/KG BW ONCE): 12/20 (60%), 7/14 (50%), 17%, not significant
tumour outcome (control, treated, inhibition, significance) (Carcinogen: N-NITROBIS(2-OXOPROPYL)AMINE, 60559-38-4, Dose [Inhibitor]: 0.4 OR 0.8 MMOL/KG DIET DAILY STARTING 1 WK AFTER CARCINOGEN TREATMENT AND CONTINUING THROUGH THE END OF THE STUDY (STUD, Strain/Sex: SYRIAN/FEMALE, Target Tissue: Type of Lesion: PANCREAS: DUCTULAR CARCINOMA, Dose [Carcinogen]: 10 MG/KG BW ONCE): 6/23 (27%), 3/23 (13%), 52%, not significant
tumour outcome (control, treated, inhibition, significance) (Carcinogen: N-NITROBIS(2-OXOPROPYL)AMINE, 60559-38-4, Dose [Inhibitor]: 0.4 OR 0.8 MMOL/KG DIET DAILY STARTING 1 WK AFTER CARCINOGEN TREATMENT AND CONTINUING THROUGH THE END OF THE STUDY (STUD, Strain/Sex: SYRIAN/FEMALE, Target Tissue: Type of Lesion: PANCREAS: DUCTULAR CARCINOMA, Dose [Carcinogen]: 40 MG/KG BW ONCE): 6/20 (30%), 9/14 (64%), -113%, not significant
tumour outcome (control, treated, inhibition, significance) (Carcinogen: N-NITROBIS(2-OXOPROPYL)AMINE, 60559-38-4, Dose [Inhibitor]: 0.4 OR 0.8 MMOL/KG DIET DAILY STARTING 1 WK AFTER CARCINOGEN TREATMENT AND CONTINUING THROUGH THE END OF THE STUDY (STUD, Strain/Sex: SYRIAN/MALE, Target Tissue: Type of Lesion: PANCREAS: DUCTULAR CARCINOMA, Dose [Carcinogen]: 40 MG/KG BW ONCE): 5/24 (21%), 9/24 (38%), -81%, not significant
tumour outcome (control, treated, inhibition, significance) (Carcinogen: N-NITROBIS(2-OXOPROPYL)AMINE, 60559-38-4, Dose [Inhibitor]: 0.4 OR 0.8 MMOL/KG/D IN DIET STARTING 1 WK AFTER CARCINOGEN TREATMENT AND CONTINUING THROUGH THE END OF THE STUDY (STUDY, Strain/Sex: SYRIAN/MALE, Target Tissue: Type of Lesion: LIVER: BENIGN TUMOR, Dose [Carcinogen]: 40 MG/KG BW ONCE): 21%, 48%, -129%, not significant
tumour outcome (control, treated, inhibition, significance) (Carcinogen: N-NITROBIS(2-OXOPROPYL)AMINE, 60559-38-4, Dose [Inhibitor]: 0.4 OR 0.8 MMOL/KG/D IN DIET STARTING 1 WK AFTER CARCINOGEN TREATMENT AND CONTINUING THROUGH THE END OF THE STUDY (STUDY, Strain/Sex: SYRIAN/MALE, Target Tissue: Type of Lesion: PANCREAS: DUCTULAR ADENOMA, Dose [Carcinogen]: 10 MG/KG BW ONCE): 3/22 (14%), 20/36 (56%), -300%, p<0.05
tumour outcome (control, treated, inhibition, significance) (Carcinogen: N-NITROBIS(2-OXOPROPYL)AMINE, 60559-38-4, Dose [Inhibitor]: 0.4 OR 0.8 MMOL/KG/D IN DIET STARTING 1 WK AFTER CARCINOGEN TREATMENT AND CONTINUING THROUGH THE END OF THE STUDY (STUDY, Strain/Sex: SYRIAN/MALE, Target Tissue: Type of Lesion: PANCREAS: DUCTULAR CARCINOMA, Dose [Carcinogen]: 10 MG/KG BW ONCE): 4/22 (18%), 8/36 (22%), -22%, not significant
tumour outcome (control, treated, inhibition, significance) (Carcinogen: N-NITROBIS(2-OXOPROPYL)AMINE, 60559-38-4, Dose [Inhibitor]: 0.5 OR 1.0 MMOL/KG/D IN DIET STARTING 1 WK AFTER CARCINOGEN TREATMENT AND CONTINUING THROUGH THE END OF THE STUDY (STUDY, Strain/Sex: SYRIAN/FEMALE, Target Tissue: Type of Lesion: PANCREAS: DUCTULAR ADENOMA, Dose [Carcinogen]: 10 MG/KG BW ONCE): 5/23 (22%), 9/23 (39%), -77%, not significant
tumour outcome (control, treated, inhibition, significance) (Carcinogen: N-NITROBIS(2-OXOPROPYL)AMINE, 60559-38-4, Dose [Inhibitor]: 0.5 OR 1.0 MMOL/KG/D IN DIET STARTING 1 WK AFTER CARCINOGEN TREATMENT AND CONTINUING THROUGH THE END OF THE STUDY (STUDY, Strain/Sex: SYRIAN/FEMALE, Target Tissue: Type of Lesion: PANCREAS: DUCTULAR CARCINOMA, Dose [Carcinogen]: 10 MG/KG BW ONCE): 6/23 (27%), 3/23 (13%), 52%, not significant
tumour outcome (control, treated, inhibition, significance) (Carcinogen: N-NITROSOBIS(2-OXYPROPYL)AMINE, 60599-38-4, Dose [Inhibitor]: 0.05, 0.1 OR 0.2 MILLIMOLAR/KG DIET FOR 32 WK STARTING 1 WK AFTER THE CARCINOGEN DOSE (STUDY DURATION: 33 WK), Strain/Sex: SYRIAN/FEMALE, Target Tissue: Type of Lesion: LUNG: ADENOMA, Dose [Carcinogen]: 40 MG/KG ONCE): 3/10 (30%), 6/26 (23%), 23%, not significant
tumour outcome (control, treated, inhibition, significance) (Carcinogen: N-NITROSOBIS(2-OXYPROPYL)AMINE, 60599-38-4, Dose [Inhibitor]: 0.05, 0.1 OR 0.2 MILLIMOLAR/KG DIET FOR 32 WK STARTING 1 WK AFTER THE CARCINOGEN DOSE (STUDY DURATION: 33 WK), Strain/Sex: SYRIAN/MALE, Target Tissue: Type of Lesion: COMMON DUCT: ADENOMA, Dose [Carcinogen]: 40 MG/KG ONCE): 4/12 (33%), 17/29 (59%), -78%, not significant
tumour outcome (control, treated, inhibition, significance) (Carcinogen: N-NITROSOBIS(2-OXYPROPYL)AMINE, 60599-38-4, Dose [Inhibitor]: 0.05, 0.1 OR 0.2 MILLIMOLAR/KG DIET FOR 32 WK STARTING 1 WK AFTER THE CARCINOGEN DOSE (STUDY DURATION: 33 WK), Strain/Sex: SYRIAN/MALE, Target Tissue: Type of Lesion: GALL BLADDER: ADENOMA, Dose [Carcinogen]: 40 MG/KG ONCE): 3/12 (25%), 12/29 (41%), -64%, not significant
tumour outcome (control, treated, inhibition, significance) (Carcinogen: N-NITROSOBIS(2-OXYPROPYL)AMINE, 60599-38-4, Dose [Inhibitor]: 0.05, 0.1 OR 0.2 MILLIMOLAR/KG DIET FOR 32 WK STARTING 1 WK AFTER THE CARCINOGEN DOSE (STUDY DURATION: 33 WK), Strain/Sex: SYRIAN/MALE, Target Tissue: Type of Lesion: LIVER: ADENOMA, Dose [Carcinogen]: 40 MG/KG ONCE): 50%, 41%, 18%, not significant
tumour outcome (control, treated, inhibition, significance) (Carcinogen: N-NITROSOBIS(2-OXYPROPYL)AMINE, 60599-38-4, Dose [Inhibitor]: 0.05, 0.1 OR 0.2 MILLIMOLAR/KG DIET FOR 32 WK STARTING 1 WK AFTER THE CARCINOGEN DOSE (STUDY DURATION: 33 WK), Strain/Sex: SYRIAN/MALE, Target Tissue: Type of Lesion: LUNG: ADENOMA, Dose [Carcinogen]: 40 MG/KG ONCE): 1/12 (8%), 2/29 (3%), 63%, not significant
tumour outcome (control, treated, inhibition, significance) (Carcinogen: N-NITROSOBIS(2-OXYPROPYL)AMINE, 60599-38-4, Dose [Inhibitor]: 0.05, 0.1 OR 0.2 MILLIMOLAR/KG DIET FOR 32 WK STARTING 1 WK AFTER THE CARCINOGENDOSE (STUDY DURATION: 33 WK), Strain/Sex: SYRIAN/FEMALE, Target Tissue: Type of Lesion: COMMON DUCT: ADENOMA, Dose [Carcinogen]: 40 MG/KG ONCE): 4/10 (40%), 11/26 (42%), -5%, not significant
tumour outcome (control, treated, inhibition, significance) (Carcinogen: N-NITROSOBIS(2-OXYPROPYL)AMINE, 60599-38-4, Dose [Inhibitor]: 0.05, 0.1 OR 0.2 MILLIMOLAR/KG DIET FOR 32 WK STARTING 1 WK AFTER THE CARCINOGENDOSE (STUDY DURATION: 33 WK), Strain/Sex: SYRIAN/FEMALE, Target Tissue: Type of Lesion: GALL BLADDER: ADENOMA, Dose [Carcinogen]: 40 MG/KG ONCE): 6/10 (60%), 2/26 (18%), 70%, not significant
tumour outcome (control, treated, inhibition, significance) (Carcinogen: N-NITROSOBIS(2-OXYPROPYL)AMINE, 60599-38-4, Dose [Inhibitor]: 0.05, 0.1 OR 0.2 MILLIMOLAR/KG DIET FOR 32 WK STARTING 1 WK AFTER THE CARCINOGENDOSE (STUDY DURATION: 33 WK), Strain/Sex: SYRIAN/FEMALE, Target Tissue: Type of Lesion: LIVER : ADENOMA, Dose [Carcinogen]: 40 MG/KG ONCE): 6/10 (60%), 10/26 (39%), 35%, not significant
tumour outcome (control, treated, inhibition, significance) (Carcinogen: N-NITROSOBIS(2-OXYPROPYL)AMINE, 60599-38-4, Dose [Inhibitor]: 0.05, 0.1 OR 0.2 MILLIMOLAR/KG DIET FOR 32 WK STARTING 1 WK AFTER THE CARCINOGENDOSE (STUDY DURATION: 33 WK), Strain/Sex: SYRIAN/FEMALE, Target Tissue: Type of Lesion: PANCREAS: ADENOMA, Dose [Carcinogen]: 40 MG/KG ONCE): 10/10 (100%), 26/26 (100%), 0%, not significant
tumour outcome (control, treated, inhibition, significance) (Carcinogen: N-NITROSOBIS(2-OXYPROPYL)AMINE, 60599-38-4, Dose [Inhibitor]: 0.05, 0.1 OR 0.2 MILLIMOLAR/KG DIET FOR 32 WK STARTING 1 WK AFTER THE CARCINOGENDOSE (STUDY DURATION: 33 WK), Strain/Sex: SYRIAN/FEMALE, Target Tissue: Type of Lesion: PANCREAS: CARCINOMA, Dose [Carcinogen]: 40 MG/KG ONCE): 4/10 (40%), 14/26 (54%), -35%, not significant
tumour outcome (control, treated, inhibition, significance) (Carcinogen: N-NITROSOBIS(2-OXYPROPYL)AMINE, 60599-38-4, Dose [Inhibitor]: 0.05, 0.1 OR 0.2 MILLIMOLAR/KG DIET FOR 32 WK STARTING 1 WK AFTER THE CARCINOGENDOSE (STUDY DURATION: 33 WK), Strain/Sex: SYRIAN/MALE, Target Tissue: Type of Lesion: PANCREAS: ADENOMA, Dose [Carcinogen]: 40 MG/KG ONCE): 12/12 (100%), 29/29 (100%), 0%, not significant
tumour outcome (control, treated, inhibition, significance) (Carcinogen: N-NITROSOBIS(2-OXYPROPYL)AMINE, 60599-38-4, Dose [Inhibitor]: 0.05, 0.1 OR 0.2 MILLIMOLAR/KG DIET FOR 32 WK STARTING 1 WK AFTER THE CARCINOGENDOSE (STUDY DURATION: 33 WK), Strain/Sex: SYRIAN/MALE, Target Tissue: Type of Lesion: PANCREAS: CARCINOMA, Dose [Carcinogen]: 40 MG/KG ONCE): 6/12 (50%), 12/29 (41%), 18%, not significant
